Data on 12 molecules can be found in ChEMBL document CHEMBL3881530, “Compounds and methods for inhibiting NHE-mediated antiport in the treatment of disorders associated with fluid retention or salt overload and gastrointestinal tract disorders” (2013).

Structures are written as SMILES. The source made the active and inactive calls. No cut-off for these calls is given here. Where only a bound is given, the exact number is not on record here.

A short description of data set [1]: Cmax in Sprague-Dawley rat at 1.5 mg/kg administered via oral gavage measured up to 4 hrs by LC/MS/MS analysis. The format is ADME, organism-based. To be noted: in vivo. The arrangement: dose 1.5 mg/kg, route oral.
A short description of data set [2]: AUC in Sprague-Dawley rat at 1.5 mg/kg administered via oral gavage measured up to 4 hrs by LC/MS/MS analysis. The format is ADME, organism-based. The arrangement: time < 4 hr, dose 1.5 mg/kg, route oral. To be noted: in vivo.
Data set [3] can be described thus: AUC in Sprague-Dawley rat at 1.3 mg/kg administered via oral gavage measured up to 4 hrs by LC/MS/MS analysis. Format: ADME, organism-based. The arrangement: dose 1.3 mg/kg, time < 4 hr, route oral. As to conditions: in vivo.
Data set [4] in a line: Cmax in Sprague-Dawley rat at 1.3 mg/kg administered via oral gavage measured up to 4 hrs by LC/MS/MS analysis. The format is ADME, organism-based. The arrangement: dose 1.3 mg/kg, route oral. As to conditions: in vivo.
Data set [5] concerns Rattus norvegicus. In words: Increase in fecal water content in 1% psyllium diet fed Sprague-Dawley rat at 3 mg/kg administered via oral gavage measured after 16 hrs. The format is functional, organism-based.
Data set [6] deals with Rattus norvegicus. The data set can be described thus: Decrease in urinary sodium level in 1% psyllium diet fed Sprague-Dawley rat at 3 mg/kg administered via oral gavage measured after 16 hrs by ion chromatographic analysis. Format: functional, organism-based.
Data set [7] deals with Rattus norvegicus. The data set can be described thus: Increase in fecal sodium level in Sprague-Dawley rat at 3 mg/kg administered via oral gavage measured after 16 hrs by ion chromatographic analysis. The format is functional, organism-based.
For data set [8], the system named is Rattus norvegicus. The data set can be described thus: Antinociceptive activity in Wistar rat assessed as inhibition of partial restraint stress-induced visceral hyperalgesia at 10 mg/kg, po administered 1 hr prior to 45 to 60 mm Hg colorectal distension pressure by measuring number of abdominal contractions monitoring every 5 mins during rectal distension. The format is functional, organism-based. As to conditions: Abdominal cavity.

Data set [9] concerns Rattus norvegicus. In words: Reduction in fecal stool form in 1% psyllium diet fed Sprague-Dawley rat at 3 mg/kg administered via oral gavage measured after 16 hrs. Format: functional, organism-based.
Data set [10] deals with Rattus norvegicus. The data set can be described thus: Increase in fecal water content in Sprague-Dawley rat administered via oral gavage measured after 16 hrs. The format is functional.
For data set [11], the target named is Sodium/hydrogen exchanger 3 (Rattus norvegicus, UniProt P26433). The data set can be described thus: Inhibition of rat NHE-3.
Data set [12] can be described thus: AUC in Sprague-Dawley rat at 21 mg/kg administered via oral gavage measured up to 4 hrs by LC/MS/MS analysis. Format: ADME, organism-based. On the set-up: dose 21 mg/kg, time < 4 hr, route oral. To be noted: in vivo.
Data set [13] in a line: Cmax in Sprague-Dawley rat at 21 mg/kg administered via oral gavage measured up to 4 hrs by LC/MS/MS analysis. The format is ADME, organism-based. On the set-up: dose 21 mg/kg, route oral. To be noted: in vivo.
A short description of data set [14]: Cmax in Sprague-Dawley rat at 2.4 mg/kg administered via oral gavage measured up to 4 hrs by LC/MS/MS analysis. The arrangement: dose 2.4 mg/kg, route oral. As to conditions: in vivo. The format is ADME, organism-based.
For data set [15], the target named is T1, Sodium/hydrogen exchanger 2 (Oryctolagus cuniculus, UniProt P50482).
T1 sequence (P50482 whole entry): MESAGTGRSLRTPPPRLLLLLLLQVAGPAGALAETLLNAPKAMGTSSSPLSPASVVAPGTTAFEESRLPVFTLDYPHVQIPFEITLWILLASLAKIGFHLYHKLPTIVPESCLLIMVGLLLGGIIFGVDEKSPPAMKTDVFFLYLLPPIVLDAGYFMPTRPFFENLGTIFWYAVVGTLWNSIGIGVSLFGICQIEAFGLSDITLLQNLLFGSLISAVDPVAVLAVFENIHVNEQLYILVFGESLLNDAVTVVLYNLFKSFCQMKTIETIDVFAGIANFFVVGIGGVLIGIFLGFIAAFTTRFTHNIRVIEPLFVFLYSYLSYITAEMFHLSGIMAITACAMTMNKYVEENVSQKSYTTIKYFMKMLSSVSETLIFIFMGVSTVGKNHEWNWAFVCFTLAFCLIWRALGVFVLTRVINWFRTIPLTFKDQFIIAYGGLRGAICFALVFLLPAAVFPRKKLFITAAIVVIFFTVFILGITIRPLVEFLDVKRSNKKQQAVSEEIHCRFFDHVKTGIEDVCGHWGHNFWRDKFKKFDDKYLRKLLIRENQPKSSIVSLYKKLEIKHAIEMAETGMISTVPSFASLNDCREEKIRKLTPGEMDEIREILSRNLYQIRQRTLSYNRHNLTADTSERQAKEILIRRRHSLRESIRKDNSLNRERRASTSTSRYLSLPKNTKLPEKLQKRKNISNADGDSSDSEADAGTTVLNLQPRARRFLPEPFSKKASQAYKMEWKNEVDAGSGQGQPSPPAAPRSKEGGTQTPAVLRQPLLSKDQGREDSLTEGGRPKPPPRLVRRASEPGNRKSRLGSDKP
In words: Inhibition of rabbit NHE-2.

Data set [16] deals with T2, Sodium/hydrogen exchanger 3 (Homo sapiens, UniProt P48764).
T2 sequence (P48764 whole entry): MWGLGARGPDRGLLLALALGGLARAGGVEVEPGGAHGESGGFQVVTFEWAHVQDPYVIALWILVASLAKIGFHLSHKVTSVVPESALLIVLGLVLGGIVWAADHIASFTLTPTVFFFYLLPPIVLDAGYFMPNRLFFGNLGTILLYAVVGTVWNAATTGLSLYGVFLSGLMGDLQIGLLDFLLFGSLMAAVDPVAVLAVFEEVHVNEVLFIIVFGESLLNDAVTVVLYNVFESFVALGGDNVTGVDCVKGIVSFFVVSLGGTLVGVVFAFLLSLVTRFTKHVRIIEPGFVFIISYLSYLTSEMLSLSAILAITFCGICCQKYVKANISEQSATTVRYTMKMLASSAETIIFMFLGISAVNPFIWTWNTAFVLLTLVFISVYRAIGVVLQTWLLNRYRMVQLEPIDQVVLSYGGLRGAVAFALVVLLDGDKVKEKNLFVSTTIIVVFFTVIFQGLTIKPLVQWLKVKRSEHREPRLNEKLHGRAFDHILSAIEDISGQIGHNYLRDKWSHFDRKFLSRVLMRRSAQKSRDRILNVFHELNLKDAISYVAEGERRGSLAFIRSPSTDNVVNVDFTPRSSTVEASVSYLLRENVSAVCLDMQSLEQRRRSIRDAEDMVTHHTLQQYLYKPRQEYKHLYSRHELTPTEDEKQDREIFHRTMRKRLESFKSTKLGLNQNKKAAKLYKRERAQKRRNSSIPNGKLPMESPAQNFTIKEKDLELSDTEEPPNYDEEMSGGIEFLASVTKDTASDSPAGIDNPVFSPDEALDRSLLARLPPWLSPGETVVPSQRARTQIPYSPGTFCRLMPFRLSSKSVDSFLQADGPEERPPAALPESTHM
The data set can be described thus: Inhibition of NHE-3 (unknown origin).

The target in data set [17] is Sodium/hydrogen exchanger 1 (Homo sapiens, UniProt P19634). The data set can be described thus: Inhibition of NHE-1 (unknown origin).
A short description of data set [18]: Apparent permeability of the compound from apical to basolateral side at pH 7.4 after 3 hrs by PAMPA. Format: ADME. (In general: PAMPA measures passive passage across an artificial lipid membrane.)
Data set [19] can be described thus: Cmax in Sprague-Dawley rat at 1.6 mg/kg administered via oral gavage measured up to 4 hrs by LC/MS/MS analysis. Format: ADME, organism-based. On the set-up: dose 1.6 mg/kg, route oral. To be noted: in vivo.
The nature of data set [20]: AUC in Sprague-Dawley rat at 1.6 mg/kg administered via oral gavage measured up to 4 hrs by LC/MS/MS analysis. To be noted: in vivo. Format: ADME, organism-based. The arrangement: time < 4 hr, dose 1.6 mg/kg, route oral.
Data set [21] is described as follows: AUC in Sprague-Dawley rat at 4.6 mg/kg administered via oral gavage measured up to 4 hrs by LC/MS/MS analysis. Format: ADME, organism-based. On the set-up: time < 4 hr, dose 4.6 mg/kg, route oral. To be noted: in vivo.
The nature of data set [22]: Cmax in Sprague-Dawley rat at 4.6 mg/kg administered via oral gavage measured up to 4 hrs by LC/MS/MS analysis. Format: ADME, organism-based. The arrangement: dose 4.6 mg/kg, route oral. To be noted: in vivo.
Data set [23] can be described thus: AUC in Sprague-Dawley rat at 27 mg/kg administered via oral gavage measured up to 4 hrs by LC/MS/MS analysis. The arrangement: time < 4 hr, dose 27 mg/kg, route oral. To be noted: in vivo. Format: ADME, organism-based.
A short description of data set [24]: Cmax in Sprague-Dawley rat at 27 mg/kg administered via oral gavage measured up to 4 hrs by LC/MS/MS analysis. As to conditions: in vivo. The format is ADME, organism-based. On the set-up: dose 27 mg/kg, route oral.

In general, Cmax refers to the highest concentration seen after dosing. Usually AUC stands for concentration integrated over time. Low readings indicate less exposure, high ones more exposure. The IC50 is the midpoint of a concentration-inhibition curve. As usually defined, the Papp is a coefficient for how fast a substance crosses the barrier.

Sequence of Sodium/hydrogen exchanger 3 (Rattus norvegicus, UniProt P26433) (P26433 whole entry): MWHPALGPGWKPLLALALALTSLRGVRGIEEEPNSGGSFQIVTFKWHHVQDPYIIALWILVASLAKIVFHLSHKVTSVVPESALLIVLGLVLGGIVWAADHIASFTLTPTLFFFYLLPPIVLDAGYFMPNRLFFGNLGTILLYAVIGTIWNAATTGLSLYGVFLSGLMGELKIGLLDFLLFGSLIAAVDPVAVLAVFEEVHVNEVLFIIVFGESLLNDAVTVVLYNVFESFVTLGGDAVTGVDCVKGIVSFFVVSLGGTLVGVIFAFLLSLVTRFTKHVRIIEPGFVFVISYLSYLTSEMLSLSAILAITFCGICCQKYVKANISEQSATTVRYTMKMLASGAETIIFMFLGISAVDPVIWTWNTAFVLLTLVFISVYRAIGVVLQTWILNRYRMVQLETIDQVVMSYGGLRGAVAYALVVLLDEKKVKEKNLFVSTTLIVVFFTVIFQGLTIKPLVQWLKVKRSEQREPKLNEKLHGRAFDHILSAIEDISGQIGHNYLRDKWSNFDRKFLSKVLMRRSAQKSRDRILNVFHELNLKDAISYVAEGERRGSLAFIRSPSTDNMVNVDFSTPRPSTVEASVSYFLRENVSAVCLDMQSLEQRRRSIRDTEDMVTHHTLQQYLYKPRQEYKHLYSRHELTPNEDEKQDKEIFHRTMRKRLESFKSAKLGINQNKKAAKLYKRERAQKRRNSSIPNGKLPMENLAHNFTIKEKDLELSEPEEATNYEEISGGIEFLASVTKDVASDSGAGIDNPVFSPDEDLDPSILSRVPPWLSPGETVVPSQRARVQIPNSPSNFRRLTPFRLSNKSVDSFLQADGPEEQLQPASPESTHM
Sequence of Sodium/hydrogen exchanger 1 (P19634 whole entry): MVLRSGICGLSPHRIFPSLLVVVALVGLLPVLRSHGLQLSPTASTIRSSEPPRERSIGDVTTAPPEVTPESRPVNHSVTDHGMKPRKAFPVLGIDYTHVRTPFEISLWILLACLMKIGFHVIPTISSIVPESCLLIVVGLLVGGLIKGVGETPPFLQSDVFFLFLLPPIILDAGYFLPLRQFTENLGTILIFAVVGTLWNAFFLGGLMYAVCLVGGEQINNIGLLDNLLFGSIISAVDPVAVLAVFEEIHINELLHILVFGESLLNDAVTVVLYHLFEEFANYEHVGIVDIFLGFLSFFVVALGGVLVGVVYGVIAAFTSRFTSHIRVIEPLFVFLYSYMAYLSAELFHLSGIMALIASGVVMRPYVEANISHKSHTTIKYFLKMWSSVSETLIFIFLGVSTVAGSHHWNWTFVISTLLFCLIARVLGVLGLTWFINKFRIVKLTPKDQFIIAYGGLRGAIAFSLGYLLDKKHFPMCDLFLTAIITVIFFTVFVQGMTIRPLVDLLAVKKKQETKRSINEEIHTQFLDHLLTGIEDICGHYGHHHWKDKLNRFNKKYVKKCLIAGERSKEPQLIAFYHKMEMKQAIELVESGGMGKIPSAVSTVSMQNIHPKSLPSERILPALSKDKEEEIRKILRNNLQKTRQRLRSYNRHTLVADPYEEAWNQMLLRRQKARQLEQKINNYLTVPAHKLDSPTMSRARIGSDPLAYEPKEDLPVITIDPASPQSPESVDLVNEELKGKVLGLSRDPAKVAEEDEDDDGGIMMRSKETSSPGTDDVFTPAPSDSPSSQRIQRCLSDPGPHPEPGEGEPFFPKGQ

Turning to `C/C(=C\c1cc(F)c(Oc2ccc(S(=O)(=O)NCCOCCOCCOCCNC(=O)[C@H](O)[C@@H](O)C(=O)NCCOCCOCCOCCNS(=O)(=O)c3ccc(Oc4c(F)cc(/C=C(\C)C(=O)N=C(N)N)cc4F)cc3)cc2)c(F)c1)C(=O)N=C(N)N`, in data set [1], the Cmax was under 2.7 ng/mL. In data set [2], the AUC at 4 h was under 4.4 ng·h/mL.
In [3], `CN1Cc2c(Cl)cc(Cl)cc2C(c2cccc(NS(=O)(=O)NCCP(=O)(O)O)c2)C1` (centres undefined) gave an AUC at 4 h of 56 ng·h/mL. Further, the Cmax in data set [4] amounted to 11 ng/mL.
Consider `CN1Cc2c(Cl)cc(Cl)cc2C(c2cccc(S(=O)(=O)NCCOCCOCCOCCNC(=O)C(O)C(O)C(=O)NCCOCCOCCOCCNS(=O)(=O)c3cccc(C4CN(C)Cc5c(Cl)cc(Cl)cc54)c3)c2)C1` (single isomer, unassigned), for which the outcome with Rattus norvegicus [5], in the data set on Rattus norvegicus [6], in the data set on Rattus norvegicus [7] and with Rattus norvegicus [9] was Active. In addition, the inhibition entry in the data set with Rattus norvegicus [8] was “Active”.
`CN1Cc2c(Cl)cc(Cl)cc2C(c2cccc(S(=O)(=O)NCCOCCOCCOCCNC(=O)C(O)C(O)C(=O)NCCOCCOCCOCCNS(=O)(=O)c3cccc(C4CN(C)Cc5c(Cl)cc(Cl)cc54)c3)c2)C1` (centres undefined): in the data set on Rattus norvegicus [10], the Activity result was “Dose-dependent effect”.
As for `N=C(N)NC(=O)c1cnn(-c2cccc3ncccc23)c1C1CC1` [ZONIPORIDE], the half-maximal inhibitory concentration (IC50) in [11] was over 500 µM.
`CN1Cc2c(Cl)cc(Cl)cc2C(c2cccc(S(=O)(=O)NCCOCCOCCOCCNC(=O)Nc3ccc(NC(=O)NCCOCCOCCOCCNS(=O)(=O)c4cccc([C@@H]5CN(C)Cc6c(Cl)cc(Cl)cc65)c4)cc3)c2)C1` (mixture of isomers): the exposure (AUC) at 4 h in [12] is under 2 ng·h/mL. Moreover, the peak concentration (Cmax) in data set [13] is under 2 ng/mL.
On to `N=C(N)N1CCN(c2cccc(-c3nc(N=C(N)N)nc4ccc(Cl)cc34)c2)CC1`, for which the highest level in data set [14] (Cmax) was 2 ng/mL.
Take `C/C(=C\c1cc(C)ccc1/C=C(\C)C(=O)NC(=N)N)C(=O)N=C(N)N`: the results for the IC50 in data set [15], in data set [16] and in [17] were 80 µM, 0.02 µM and 3.6 µM, respectively.
In the case of `NC(N)=Nc1nc(-c2cccc(N3CCN(CCCC(=O)O)CC3)c2)c2cc(Cl)ccc2n1.O=C(O)C(F)(F)F`, the apparent permeability coefficient (Papp) at 3 h in data set [18] was 0.4 ×10⁻⁶ cm/s.
For `CN1Cc2c(Cl)cc(Cl)cc2C(c2cccc(S(=O)(=O)NCCN(CCNS(=O)(=O)c3cccc(C4CN(C)Cc5c(Cl)cc(Cl)cc54)c3)CCNS(=O)(=O)c3cccc(C4CN(C)Cc5c(Cl)cc(Cl)cc54)c3)c2)C1` (centres undefined), in data set [19], the Cmax is 71 ng/mL. The exposure (AUC) at 4 h in [20] was found to be 159 ng·h/mL.
`C/C(=C\c1cc(F)c(Oc2ccc(S(=O)(=O)NCc3ccc(CP(=O)(O)O)cc3)cc2)c(F)c1)C(=O)N=C(N)N` had an AUC at 4 h in [21] of 9 ng·h/mL. Moreover, in data set [22], the highest level (Cmax) was 14 ng/mL.
As to `CN1Cc2c(Cl)cc(Cl)cc2[C@H](c2ccc(S(=O)(=O)NCCOCCOCCOCCNC(=O)C(O)C(O)C(=O)NCCOCCOCCOCCNS(=O)(=O)c3ccc([C@@H]4CN(C)Cc5c(Cl)cc(Cl)cc54)cc3)cc2)C1` (single isomer, unassigned), in data set [23], the AUC at 4 h is under 5.3 ng·h/mL. In data set [24], this molecule yielded a Cmax of under 3.5 ng/mL.
